Results reported in US20260092085A1, “SYNTHETIC TRIPLEX PEPTIDE NUCLEIC ACID-BASED INHIBITORS FOR CANCER THERAPY” (University of Connecticut, priority 2022, published 2026).
{RR} = two arginine residues at the PNA terminus

Key:
Format in all cases: cell-based, human
miR-155 = miR-155 gene expression by RT-PCR in U2932 cells; details: U2932, 500 nM, 48 hours, relative to scrambled control
Protocol: FIGS. 3A-F show cell culture-based functional assay in U2932 lymphoma cells. (3A) γtcPNA-155-TAMRA uptake in the U2932 lymphoma cell line: Representative flow cytometry traces of TAMRA fluorescence in U2932 cells after treatment with 500 nM dose of γtcPNA-155-TAMRA for 48 hours. The data was analyzed by FlowJo software. (3B) Normalized miR-155 gene expression levels in U2932 after treatment with phosphate buffer saline (PBS) as a control and with 500 nM dose of Scr-γtcPNA-155, PNA-155, γPNA-155 and γtcPNA-155 for 48 hours compared to average control U6 (n=3), data represented as mean±standard error mean (SEM), Statistical analysis was performed using Unpaired two-tailed t-test. Further, statistical analysis was performed relative to Scr-γtcPNA-155 treated cells. ***p<0.001. (3C) Gene expression level of miR-155 downstream genes, tumor suppressor proteins (FOXO3A, CUX1, SOCS1, CSF1R, JARID2, SHIP1, PICALM, PDCD4, BACH1, WEE1, TP53TG3, CASP3, PTEN) in U2932 cell line after treatment with PBS as a control and with after treatment with 500 nM of Scr-γtcPNA-155, PNA-155, γPNA-155 and γtcPNA-155 for 48 hours. Data is normalized with average GAPDH control (n=3), and represented as mean±SEM, *p<0.05. Unpaired two-tailed t-test was used for statistical analysis and analysis was performed relative to Scr-γtcPNA-155 treated cells. (3D) Gene expression level of miR-155 downstream genes MCL1 in U2932 cell line after treatment with PBS as a control and 500 nM of Scr-γtcPNA-155, PNA-155, γPNA-155 and γtcPNA-155 for 48 hours. Data is normalized with average GAPDH control (n=3), and represented as mean±SEM, *p<0.05, **p<0.01 and ***p<0.001. […] (3E) Representative western blot of Mcl-1 and its quantification (n=3 technical replicate) and (3F) Caspase-3 protein and its quantification (n=3 technical replicate) in U2932 cell line after treatment with 500 nM of Scr-γtcPNA-155, PNA-155 and γtcPNA-155 for 48 hours. […] Numbers above western blot panels represent relative quantification of the respective bands using ImageJ software and normalized relative to loading control and treatment control. […]

miR-155 downstream genes = assay: Gene expression of miR-155 downstream genes by RT-PCR in U2932 cells; details: U2932, 500 nM, 48 hours
Protocol: FIGS. 3A-F show cell culture-based functional assay in U2932 lymphoma cells. (3A) γtcPNA-155-TAMRA uptake in the U2932 lymphoma cell line: Representative flow cytometry traces of TAMRA fluorescence in U2932 cells after treatment with 500 nM dose of γtcPNA-155-TAMRA for 48 hours. The data was analyzed by FlowJo software. (3B) Normalized miR-155 gene expression levels in U2932 after treatment with phosphate buffer saline (PBS) as a control and with 500 nM dose of Scr-γtcPNA-155, PNA-155, γPNA-155 and γtcPNA-155 for 48 hours compared to average control U6 (n=3), data represented as mean±standard error mean (SEM), Statistical analysis was performed using Unpaired two-tailed t-test. Further, statistical analysis was performed relative to Scr-γtcPNA-155 treated cells. ***p<0.001. (3C) Gene expression level of miR-155 downstream genes, tumor suppressor proteins (FOXO3A, CUX1, SOCS1, CSF1R, JARID2, SHIP1, PICALM, PDCD4, BACH1, WEE1, TP53TG3, CASP3, PTEN) in U2932 cell line after treatment with PBS as a control and with after treatment with 500 nM of Scr-γtcPNA-155, PNA-155, γPNA-155 and γtcPNA-155 for 48 hours. Data is normalized with average GAPDH control (n=3), and represented as mean±SEM, *p<0.05. Unpaired two-tailed t-test was used for statistical analysis and analysis was performed relative to Scr-γtcPNA-155 treated cells. (3D) Gene expression level of miR-155 downstream genes MCL1 in U2932 cell line after treatment with PBS as a control and 500 nM of Scr-γtcPNA-155, PNA-155, γPNA-155 and γtcPNA-155 for 48 hours. Data is normalized with average GAPDH control (n=3), and represented as mean±SEM, *p<0.05, **p<0.01 and ***p<0.001. Statistical analysis was performed using Unpaired two-tailed t-test. Analysis was performed relative to Scr-γtcPNA-155 treated cells. (3E) Representative western blot of Mcl-1 and its quantification (n=3 technical replicate) and (3F) Caspase-3 protein and its quantification (n=3 technical replicate) in U2932 cell line after treatment with 500 nM of Scr-γtcPNA-155, PNA-155 and γtcPNA-155 for 48 hours. Data is represented as mean±SEM and unpaired two-tailed t-test was used for statistical analysis. *p<0.05 **p<0.01. Numbers above western blot panels represent relative quantification of the respective bands using ImageJ software and normalized relative to loading control and treatment control.
Gene expression by RT-PCR: 400,000 U2932 cells were seeded in a 12 well plate. The cells were treated with 500 nM PNA-155, gamma tcPNA-155, gamma PNA-155, Scr gamma tcPNA-155 or were PBS treated (control) for 48 hrs in an incubator (37° C. and 5% CO2). The cells were centrifuged at 2000 rpm for 4 mins at 4° C. The total RNA from the cell pellet was extracted using RNeasy® mini kit (Qiagen). The cDNA was prepared in thermal cycler (Bio-rad) using reverse transcriptase, RNase inhibitor, dNTPs, nuclease-free water and RT primers specific for miR-155 and U6. Random primers were used for the preparation of cDNA for downstream targets. The cDNA was amplified using miR-155 assay, U6 assay, or specific downstream target assays in CFX Connect™ Real-time PCR detection system (Bio-rad). The samples were subjected to polymerase activation (95° C. for 10 mins), followed by 40 cycles of denaturation (95° C. for 15 sec) and annealing (60° C. for 1 min). The 2^−ΔΔCT method was used to calculate the fold change in target genes.

U2932 cells = assay: Annexin V-based apoptosis assay in U2932 cells; details: 48 hours
Protocol: Quantification of apoptotic cells by flow cytometry after treating U2932 cells with PBS as a control and 500 nM Scr-γtcPNA-155, PNA-155, γPNA-155 and γtcPNA-155 for 48 hours. The apoptotic cells and necrotic were stained using Phycoerythrin (PE) Annexin V and 7-Amino-Actinomycin (7-AAD) respectively. The % apoptotic cells after treatment was compared to the PBS treated cells, by setting the same threshold. Bar graph of % apoptotic cells (n=3 technical triplicate), data represented as mean±standard error mean (SEM), *p<0.05, **p<0.01, ***p<0.001, unpaired two-tailed t-test was used for statistical analysis. Representative dot plots of Scr-γtcPNA-155 and γtcPNA-155 treated U2932 cells. The experiment was repeated three times and in triplicate. One out of three representative experiments are shown.
The apoptotic cells and necrotic were stained using Phycoerythrin (PE) Annexin V and 7-Amino-Actinomycin (7-AAD) respectively. The % apoptotic cells after treatment was compared to the PBS treated cells, by setting the same threshold. Bar graph of % apoptotic cells (n=3 technical triplicate), data represented as mean±standard error mean (SEM), **p<0.01, unpaired two-tailed t-test was used for statistical analysis. Representative dot plots of PBS treated and γtcPNA-155 treated U2932 cells. The experiment was repeated three times and in triplicate. One out of three representative experiments is shown.
Apoptosis Assay: 400,000 U2932 cells were seeded in a 12 well plate. The cells were treated with 500 nM PNA-155, γPNA-155, γtcPNA-155, Scr-γ tcPNA-155 or were PBS treated (control) for 48 hrs in an incubator (37° C., 5% CO2). The cells were washed with PBS twice. The cells were centrifuged at 2000 rpm for 4 mins at 4° C. The cell pellet was suspended in IX Annexin V binding buffer. The cells were then counted and 100 μL of cell suspension (containing 2.5×10^5 cells) was passed through the FACS tube. […] 400 μL of IX Annexin V binding buffer was added to the cells and the cells were then analyzed using LSR Fortessa™ X-20 Cell analyzer as indicated above. […]

Substance: γtcPNA-155: serine gamma tail-clamp anti-miR-155 PNA, RR-TJJJJ-OOO-ACCCCTATCACGATTAGCATTAA-RR, SEQ ID NO: 3 (all peptide nucleic acid (PNA); serine gamma PNA, tail-clamp TJJJJ via linkers, Arg-Arg at both ends)
- miR-155 inhibition (miR-155): ~90%
- de-repression of miR-155 target tumor suppressor genes (miR-155 downstream genes): significant de-repression
- reduction in MCL1 gene expression levels (miR-155 downstream genes): 40%
- increase in CSF1R levels (miR-155 downstream genes; in comparison to PNA-155): 1.8 fold
- increase in CUX1 levels (miR-155 downstream genes; in comparison to PNA-155): 1.6 fold
- increase in SHIP1 levels (miR-155 downstream genes; in comparison to PNA-155): 1.4 fold
- apoptosis by Annexin-V FITC confocal imaging (U2932 cells; U2932, 500 nM): higher apoptosis
- apoptosis by annexin V flow cytometry (U2932 cells; U2932, 500 nM, versus PNA-155 and γPNA-155 treated group): increased apoptosis
- increase in apoptosis in comparison to control (U2932 cells; U2932, 10 uM): 4.5 fold

Substance: PNA-155: conventional full-length regular PNA (23mer), RR-ACCCCTATCACGATTAGCATTAA-RR, SEQ ID NO: 1 (all peptide nucleic acid (PNA), 5' {RR}, 3' {RR}) [reference compound]
- miR-155 inhibition (miR-155): approximately 80%
- reduction in MCL1 gene expression levels (miR-155 downstream genes): 10%
